Laboratory results taken from patent US11345912B2, “Directed evolution of multivalent glycopeptides that tightly bind to target proteins” (Brandeis University, priority 2013, dated 2022).

System: 2G12
Experiment: Binding curve and KD determination of 2G12-glycopeptide interaction (radiolabeled glycopeptide, protein G magnetic bead capture, scintillation counting)
Procedure: The resulting mRNAs were purified by denaturing PAGE or MEGAclear kit (Ambion), and 1 μM RNA was used in PURE system translation (reaction volume of translation varied). Typically, 25 μL of translated reaction was diluted with 100 μL of binding buffer (50 mM Tris-HCl, pH 7.8, 300 mM NaCl, 5 mM β-mercaptoethanol) and 25 μL of Ni-NTA agarose suspension (Qiagen), and tumbled at room temperature for 1 h. The resins were transferred to 0.22 μm spin-filter rinsing with 100 μL of bind buffer, and washed with 3×200 μL of bind buffer and 2×200 μL of wash buffer (50 mM Tris-HCl, pH 7.8, 5 mM β-mercaptoethanol). The bound peptides were eluted with 2×25 μL of 0.1% TFA. The eluted peptides were analyzed by MALDI-TOF MS, using α-Cyano-4-hydroxycinnamic acid matrix (Sigma), with or without desalting with ZipTip C18 resin (Millipore). For calibration of MALDI-TOF-MS, at least two of the following standards, bovine insulin, E. coli thioredoxin and/or horse apomyoglobin were used. To quantitate peptide yields, the radioactivities were measured by liquid scintillation counting. For the click reaction, the translated and purified peptides were mixed with 0.1% (v/v) Triton X-100, and then dialyzed against H2O containing 0.1% (v/v) Triton X-100 using Slide-A-Lyzer MINI Dialysis Devices, 3.5K MWCO (Thermo Scientific) overnight to desalt. After dialysis, the peptides were divided into two portions: one was glycosylated via the click reaction, while the other was saved as a non-glycosylated peptide control. […] The glycosylated peptide (<4 pmol) was incubated with 100 nM 2G12 in selection buffer (40 μL) at room temp. The solution was then tumbled 30 min with 0.12 mg of equilibrated Dynabeads Protein G to capture 2G12-glycopeptide complex. Beads were then washed with 3×40 μL of selection buffer and resuspended in 10 μL of selection buffer. The resuspended beads were heated at 70° C. for 30 min to denature 2G12 and elute glycopeptides, chilled on ice for 5 min, and tumbled at room temperature for 10 min. The magnetically isolated supernatant was recovered and the beads were rinsed with 10 μL of selection buffer.
Then, the solution was added to 0.12 mg of pre-equilibrated Dynabeads Protein G and tumbled at room temperature for 30 min. The supernatant was removed and the beads were washed with 3×40 μL of selection buffer. The radioactivities of the supernatant and wash solutions were measured by liquid scintillation counting as unbound fractions. […] The beads were resuspended in 40 μL of selection buffer, heated at 70° C. for 30 min to elute the bound glycopeptides, chilled on ice for 5 min, and tumbled at room temperature for 10 min. The supernatant was removed, and the beads were washed with 40 μL of selection buffer and resuspended in 40 μL of selection buffer. The radioactivities of these solutions and suspensions were measured by liquid scintillation counting separately and the values were combined as apparent bound fractions. […] All experiments were done at least in triplicate. KDs were calculated as described in the footnote of Table 4 (below).

Row | Compound | Fmax [%] (Table 4, maximal fraction bound from curve fit, error = standard error of fit) | Kd (Table 4, ribosomally translated radiolabeled glycopeptide with His6/FLAG tag, room temperature, fit Fbound=(Fmax[2G12])/(KD+[2G12]), error = standard error of fit) | Fmax [%] (Table 6 mutational analysis, radioactive bead binding assay) | Kd (Table 6 mutational analysis, radioactive bead binding assay, ribosomally translated)
1 | CC[C@H](C)[C@H](NC(=O)[C@H](CO)NC(=O)[C@@H](NC(=O)[C@H](CCc1cn(C2CCC(OC3O[C@H](CO[C@H]4O[C@H](CO[C@H]5O[C@H](CO)[C@@H](O)[C@H](O)[C@@H]5O[C@H]5O[C@H](CO)[C@@H](O)[C@H](O)[C@@H]5O)[C@@H](O)[C@H](O[C@H]5O[C@H](CO)[C@@H](O)[C@H](O)[C@@H]5O[C@H]5O[C@H](CO)[C@@H](O)[C@H](O)[C@@H]5O)[C@@H]4O)[C@@H](O)[C@H](O[C@H]4O[C@H](CO)[C@@H](O)[C@H](O)[C@@H]4O[C@H]4O[C@H](CO)[C@@H](O)[C@H](O)[C@@H]4O[C@H]4O[C@H](CO)[C@@H](O)[C@H](O)[C@@H]4O)[C@@H]3O)CC2)nn1)NC=O)[C@@H](C)O)C(=O)N1CCC[C@H]1C(=O)N[C@@H](Cc1ccc(O)cc1)C(=O)N[C@H](C(=O)N[C@@H](Cc1ccc(O)cc1)C(=O)N[C@@H](CC(C)C)C(=O)N[C@@H](CC(N)=O)C(=O)N[C@@H](CCCNC(=N)N)C(=O)N[C@@H](CO)C(=O)N[C@@H](CC(C)C)C(=O)N[C@@H](Cc1c[nH]c2ccccc12)C(=O)N[C@H](C(=O)N[C@@H](CC(N)=O)C(=O)N[C@@H](Cc1ccc(O)cc1)C(=O)N[C@@H](CCCNC(=N)N)C(=O)N[C@H](C(=O)N[C@@H](CC(N)=O)C(=O)N[C@@H](CO)C(=O)N[C@@H](Cc1c[nH]c2ccccc12)C(=O)N[C@@H](CO)C(=O)N[C@@H](CCc1cn(C2CCC(OC3O[C@H](CO[C@H]4O[C@H](CO[C@H]5O[C@H](CO)[C@@H](O)[C@H](O)[C@@H]5O[C@H]5O[C@H](CO)[C@@H](O)[C@H](O)[C@@H]5O)[C@@H](O)[C@H](O[C@H]5O[C@H](CO)[C@@H](O)[C@H](O)[C@@H]5O[C@H]5O[C@H](CO)[C@@H](O)[C@H](O)[C@@H]5O)[C@@H]4O)[C@@H](O)[C@H](O[C@H]4O[C@H](CO)[C@@H](O)[C@H](O)[C@@H]4O[C@H]4O[C@H](CO)[C@@H](O)[C@H](O)[C@@H]4O[C@H]4O[C@H](CO)[C@@H](O)[C@H](O)[C@@H]4O)[C@@H]3O)CC2)nn1)C(=O)N[C@@H](CO)C(=O)N[C@@H](CCCCN)C(=O)N[C@@H](CC(N)=O)C(=O)N[C@H](C(=O)N[C@@H](CC(N)=O)C(=O)N[C@H](C(=O)N[C@@H](CCc1cn(C2CCC(OC3O[C@H](CO[C@H]4O[C@H](CO[C@H]5O[C@H](CO)[C@@H](O)[C@H](O)[C@@H]5O[C@H]5O[C@H](CO)[C@@H](O)[C@H](O)[C@@H]5O)[C@@H](O)[C@H](O[C@H]5O[C@H](CO)[C@@H](O)[C@H](O)[C@@H]5O[C@H]5O[C@H](CO)[C@@H](O)[C@H](O)[C@@H]5O)[C@@H]4O)[C@@H](O)[C@H](O[C@H]4O[C@H](CO)[C@@H](O)[C@H](O)[C@@H]4O[C@H]4O[C@H](CO)[C@@H](O)[C@H](O)[C@@H]4O[C@H]4O[C@H](CO)[C@@H](O)[C@H](O)[C@@H]4O)[C@@H]3O)CC2)nn1)C(=O)N1CCC[C@H]1C(=O)N[C@@H](CC(C)C)C(=O)NCC(=O)N[C@@H](CO)C(=O)NCC(=O)N[C@@H](CO)C(=O)N[C@@H](CC(C)C)C(=O)NCC(=O)N[C@@H](Cc1c[nH]cn1)C(=O)N[C@@H](Cc1c[nH]cn1)C(=O)N[C@@H](Cc1c[nH]cn1)C(=O)N[C@@H](Cc1c[nH]cn1)C(=O)N[C@@H](Cc1c[nH]cn1)C(=O)N[C@@H](Cc1c[nH]cn1)C(=O)N[C@@H](CCCNC(=N)N)C(=O)N[C@@H](CC(=O)O)C(=O)N[C@@H](Cc1ccc(O)cc1)C(=O)N[C@@H](CCCCN)C(=O)N[C@@H](CC(=O)O)C(=O)N[C@@H](CC(=O)O)C(=O)N[C@@H](CC(=O)O)C(=O)N[C@@H](CC(=O)O)C(=O)N[C@@H](CCCCN)C(=O)O)C(C)C)C(C)C)C(C)C)[C@@H](C)O)[C@@H](C)O (stereo partly shown) [Clone 10V9, XTSIPYTYLNRSLWTNYRVNSWSXSKNVNVXPL] | 85 ± 0.68% | 3.9 ± 0.11 nM |  | 
2 | CC[C@H](C)[C@H](NC(=O)[C@H](CCCNC(=N)N)NC(=O)[C@H](CCCNC(=N)N)NC(=O)CNC(=O)[C@H](CC(=O)O)NC(=O)[C@H](CC(N)=O)NC(=O)[C@H](CC(C)C)NC(=O)[C@@H](NC(=O)[C@H](CCc1cn(C2CCC(OC3O[C@H](CO[C@H]4O[C@H](CO[C@H]5O[C@H](CO)[C@@H](O)[C@H](O)[C@@H]5O[C@H]5O[C@H](CO)[C@@H](O)[C@H](O)[C@@H]5O)[C@@H](O)[C@H](O[C@H]5O[C@H](CO)[C@@H](O)[C@H](O)[C@@H]5O[C@H]5O[C@H](CO)[C@@H](O)[C@H](O)[C@@H]5O)[C@@H]4O)[C@@H](O)[C@H](O[C@H]4O[C@H](CO)[C@@H](O)[C@H](O)[C@@H]4O[C@H]4O[C@H](CO)[C@@H](O)[C@H](O)[C@@H]4O[C@H]4O[C@H](CO)[C@@H](O)[C@H](O)[C@@H]4O)[C@@H]3O)CC2)nn1)NC=O)C(C)C)C(=O)N[C@H](C(=O)N[C@@H](CCC(N)=O)C(=O)N[C@@H](CCc1cn(C2CCC(OC3O[C@H](CO[C@H]4O[C@H](CO[C@H]5O[C@H](CO)[C@@H](O)[C@H](O)[C@@H]5O[C@H]5O[C@H](CO)[C@@H](O)[C@H](O)[C@@H]5O)[C@@H](O)[C@H](O[C@H]5O[C@H](CO)[C@@H](O)[C@H](O)[C@@H]5O[C@H]5O[C@H](CO)[C@@H](O)[C@H](O)[C@@H]5O)[C@@H]4O)[C@@H](O)[C@H](O[C@H]4O[C@H](CO)[C@@H](O)[C@H](O)[C@@H]4O[C@H]4O[C@H](CO)[C@@H](O)[C@H](O)[C@@H]4O[C@H]4O[C@H](CO)[C@@H](O)[C@H](O)[C@@H]4O)[C@@H]3O)CC2)nn1)C(=O)N[C@@H](CO)C(=O)N[C@@H](CS)C(=O)N[C@@H](CCC(=O)O)C(=O)N[C@@H](CC(C)C)C(=O)N1CCC[C@H]1C(=O)N[C@@H](CCc1cn(C2CCC(OC3O[C@H](CO[C@H]4O[C@H](CO[C@H]5O[C@H](CO)[C@@H](O)[C@H](O)[C@@H]5O[C@H]5O[C@H](CO)[C@@H](O)[C@H](O)[C@@H]5O)[C@@H](O)[C@H](O[C@H]5O[C@H](CO)[C@@H](O)[C@H](O)[C@@H]5O[C@H]5O[C@H](CO)[C@@H](O)[C@H](O)[C@@H]5O)[C@@H]4O)[C@@H](O)[C@H](O[C@H]4O[C@H](CO)[C@@H](O)[C@H](O)[C@@H]4O[C@H]4O[C@H](CO)[C@@H](O)[C@H](O)[C@@H]4O[C@H]4O[C@H](CO)[C@@H](O)[C@H](O)[C@@H]4O)[C@@H]3O)CC2)nn1)C(=O)N[C@H](C(=O)N[C@@H](CCCNC(=N)N)C(=O)N[C@@H](CCCNC(=N)N)C(=O)N[C@@H](CO)C(=O)NCC(=O)N[C@@H](CO)C(=O)NCC(=O)N[C@@H](CO)C(=O)N[C@@H](CC(C)C)C(=O)NCC(=O)N[C@@H](Cc1c[nH]cn1)C(=O)N[C@@H](Cc1c[nH]cn1)C(=O)N[C@@H](Cc1c[nH]cn1)C(=O)N[C@@H](Cc1c[nH]cn1)C(=O)N[C@@H](Cc1c[nH]cn1)C(=O)N[C@@H](Cc1c[nH]cn1)C(=O)N[C@@H](CCCNC(=N)N)C(=O)N[C@@H](CC(=O)O)C(=O)N[C@@H](Cc1ccc(O)cc1)C(=O)N[C@@H](CCCCN)C(=O)N[C@@H](CC(=O)O)C(=O)N[C@@H](CC(=O)O)C(=O)N[C@@H](CC(=O)O)C(=O)N[C@@H](CC(=O)O)C(=O)N[C@@H](CCCCN)C(=O)O)C(C)C)C(C)C (stereo partly shown) [Clone 10F5-Δ11, XVLNDGRRIVQXSCELPXVRRS] |  |  | 17% | > 200 nM
